Measured values published in US10927136B2, “Phosphorus prodrugs of pyrazolo-substituted pyrimidine sGC stimulators” (Cyclerion Therapeutics, Inc., priority 2016, dated 2021).

Experiment: Dog PK following IV and oral dosing
Assay type: in vivo, male Beagle dogs
Design: half-life / clearance / AUC(0-inf): dose or concentration left out as unconfirmed
Procedure: PK in dogs was determined following IV and oral dosing.
For the oral (PO) experiments, two groups of 5 male Beagle dogs each were used. […] IV doses were administered through an indwelling catheter in the cephalic vein. Following dose administration, the catheter was flushed with ca. 3 mL of saline. Oral suspension doses were delivered to the stomach using a syringe and gavage tube. Following oral dosage administration, the gavage tube was flushed with approximately 10 mL of water to ensure complete delivery of the full dose.
Plasma and urine samples were collected as follows: for the PO experiments, samples were collected at 15 min, 30 min, 1 hour, 2 hours, 3 hours, 4 hours, 6 hours, 8 hours, 24 hours, 32 hours and 48 hours post-dosing; for the IV experiments, samples were collected at 2 min, 5 min, 15 min, 30 min, 1 hour, 2 hours, 3 hours, 4 hours, 6 hours, 8 hours, 24 hours, 32 hours and 48 hours post-dosing. Blood samples (2 mL) were collected from the jugular, cephalic or saphenous veins. These samples were kept on ice until processed for plasma. Blood samples were centrifuged at 3200 rpm for 10 minutes at approximately 5° C. within 1 hour of collection. Plasma was split into two approximately equal aliquots, and directly transferred to a 96-well plate tube (1.1 mL). Plug caps were placed on the tubes and the tubes frozen at approximately −70° C. and stored until analysis.
Urine was collected from each animal by diversion from a urine collection pan placed beneath the cage of each animal into an appropriate collection container, surrounded by wet ice or ice packs throughout the collection. The total volume of urine collected at each interval was measured and recorded and a single 10 mL aliquot was collected and stored frozen at approximately −70° C. until analysis.
Plasma and urine were collected and analyzed for the presence of Compound I-1 and Intermediate 3 derived from Compound I-1.
Intermediate 3, Compound I-1 and the internal standard (IS, Compound Z) were extracted from plasma by precipitation. Samples were analyzed using liquid chromatography (LC) with tandem mass spectrometric detection (MS/MS) using electrospray ionization. The standard curve range was from 0.1 to 400 ng/mL.
Thawed plasma samples and the required amount of plasma for standards, blanks and dilutions. Prepared crash solution: room temp ACN containing 1 ng/mL Compound Z as Internal Standard. Created a 1× mixed (Intermediate 3 and Compound I-1) standard curve by diluting the 100× stocks (5 uL of each 100× standard into 490 uL of plasma). Transferred 50 uL of each plasma sample/dilution, standard, or blank. Added 200 uL of the crash solution containing IS. Vortexed for 5 minutes. Centrifuged at 16,000 g at room temperature for 10 min. Transferred 200 uL of each supernatant to a plate. Dried under nitrogen in a TurboVap at 55° C. Resuspended each sample in 50 uL of 0.1% Formic Acid, covered and vortexed. Analyzed by LC-MS/MS.

[1] = male, Beagle, plasma, dog, Compound I-1 0.36 mpk IV in PBS, analyte Compound I-1
[2] = male, Beagle, plasma, dog PO, Intermediate 3 in PEG400 capsules (2 mg/kg)

Row | Vol. of Dist (dog, Compound I-1 0.36 mpk IV in PBS, analyte Compound I-1) [L/kg] | average conversion to the parent (dog, Compound I-1 administered IV) [%] | AUC compared with parent dosed in PEG (dog, Compound I-1 dosed IV in PBS) | prodrug observed in plasma (dog, after PO administration of Compound I-1) | prodrug found in urine (dog, after dosing of Compound I-1) | half-life (male, Beagle, dog, plasma, iv, Compound I-1 IV in PBS, analyte Compound I-1) [min] | AUC(0-inf) [1] [ng·h/mL] | Cmax [1] [ng/mL] | clearance [1] [mL/min/kg] | Cmax/C24 (ratio) (dog PO, Intermediate 3 in PEG400 capsules (2 mg/kg)) | AUC [2] [ng·h/mL] | Cmax [2] [ng/mL] | Tmax [2] [min] | bioavailability (male, Beagle, plasma, dog PO, Intermediate 3 in PEG400 capsules (2 mg/kg), read-out: Bioavailability (% F)) [%] | Structure (SMILES)
1 | 0.09 ± 0.03 | 95 | comparable AUC to Intermediate 3 | Low levels | Negligible amounts | ~15 | 1550 ± 601 | 5110 ± 2150 | 8.3 ± 3.1 | – | – | – | – | – | O=P(O)(O)OC(CNc1nc(-c2cc(-c3ccon3)n(Cc3ccccc3F)n2)ncc1F)(C(F)(F)F)C(F)(F)F [Compound I-1]
2 | – | – | – | – | – | – | – | – | – | 3.6 ± 1.1 | 5190 ± 1410 | 307 ± 116 | 90 ± 72 | 64 ± 12.5 | OC(CNc1nc(-c2cc(-c3ccon3)n(Cc3ccccc3F)n2)ncc1F)(C(F)(F)F)C(F)(F)F [Intermediate 3]
